Test results from patent publication US10550140B2 (Achillion Pharmaceuticals, Inc., priority 2014, dated 2020).

Target: Human factor D (Homo sapiens (Human), UniProt P00746)
Assay: Human Factor D Assay
Assay type: biochemical
Experimental: The assay of Example 8 was used to determine the IC50's of the compounds. Other standard factor D inhibition assays are also available.
Example 8. Human Factor D Assay
Human factor D (purified from human serum, Complement Technology, Inc.) at 80 nM final concentration is incubated with test compound at various concentrations for 5 minutes at room temperature in 50 mM Tris, 1M NaCl, pH 7.5. A synthetic substrate Z-L-Lys-SBzl and DTNB (Ellman's reagent) are added to final concentrations of 100 μM each. The increase in color is recorded at OD405 nm in a microplate in kinetic mode over 30 minutes with 30 second time points in a spectrofluorimeter. IC50 values are calculated by non-linear regression from the percentage of inhibition of complement factor D activity as a function of test compound concentration.

Human factor D, sequence (P00746 26-253): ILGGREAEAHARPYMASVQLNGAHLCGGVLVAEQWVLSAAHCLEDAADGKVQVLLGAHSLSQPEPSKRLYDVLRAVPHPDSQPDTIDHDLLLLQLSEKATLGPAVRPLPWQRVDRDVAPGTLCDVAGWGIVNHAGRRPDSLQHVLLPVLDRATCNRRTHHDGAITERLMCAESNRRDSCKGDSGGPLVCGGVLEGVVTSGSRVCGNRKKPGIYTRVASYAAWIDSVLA

CC(=O)c1cn(CC(=O)N2C[C@H](F)C[C@H]2C(=O)Nc2cccc(Br)c2)c2ccc(Oc3ncc(Br)cn3)cc12 [Compound 35]
IC50: < 1000 nM
